Literature values, collected in patent US20130116244A1, “PHAR[…] COMPOSITIONS” (AESICA FORMULATION DEVELOPMENT LIMITED, priority 2010, published 2013).

Assays:
[1] = in vivo
[2] = not given; remark: listed apart in the source

SMILES | time after which anticonvulsant/sedative effects wear off (typically) [min] | duration of anticonvulsant/sedative effects (effects can last for) [h] | half life [1] [h] | diazepam dose equal in effect to lorazepam 1 mg (relative potency) [2] [mg]
CN1C(=O)CN=C(c2ccccc2)c2cc(Cl)ccc21 [diazepam] | 15 to 30 |  |  | 
O=C1Nc2ccc(Cl)cc2C(c2ccccc2Cl)=NC1O (stereo not shown) [lorazepam, 7-chloro-5-(2-chlorophenyl)-1,3-dihydro-3-hydroxy-2H-1,4-benzodiazepin-2-one] |  | 12 to 24 | 10 to 20 | 10
